Measured values reported in US12662489B2 (Sitryx Therapeutics Limited, priority 2023, dated 2026).

Tests used:
[1] = system: human CD4+ T cells; assay: Human CD4+ T-cell proliferation assay (CFSE, CD3/28 beads); conditions: read-out: Proliferation IC50
[2] = molecular target: T1, MTHFD1 recombinant human enzyme (Homo sapiens, UniProt P11586); assay: MTHFD1 inhibition assay (NAD(P)H-Glo luminescence); conditions: MTHFD1 IC50, recombinant human enzyme 200 nM, NADP, band
T1 sequence (P11586 2-291 limits assumed): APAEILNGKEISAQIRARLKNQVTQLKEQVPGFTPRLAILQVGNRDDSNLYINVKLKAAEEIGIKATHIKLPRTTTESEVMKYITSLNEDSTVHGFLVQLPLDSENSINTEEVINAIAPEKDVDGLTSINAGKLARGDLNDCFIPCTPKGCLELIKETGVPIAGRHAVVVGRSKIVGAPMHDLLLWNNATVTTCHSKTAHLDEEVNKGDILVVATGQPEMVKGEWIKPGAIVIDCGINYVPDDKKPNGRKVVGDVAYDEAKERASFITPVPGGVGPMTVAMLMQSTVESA

[3] = molecular target: T2, MTHFD2 recombinant human enzyme (Homo sapiens, UniProt P13995); assay: MTHFD2 inhibition assay (NAD(P)H-Glo luminescence); conditions: for MTHFD1/MTHFD2 IC50 ratio: selectivity of MTHFD2 inhibition over MTHFD1, band
T2 sequence (P13995 36-350): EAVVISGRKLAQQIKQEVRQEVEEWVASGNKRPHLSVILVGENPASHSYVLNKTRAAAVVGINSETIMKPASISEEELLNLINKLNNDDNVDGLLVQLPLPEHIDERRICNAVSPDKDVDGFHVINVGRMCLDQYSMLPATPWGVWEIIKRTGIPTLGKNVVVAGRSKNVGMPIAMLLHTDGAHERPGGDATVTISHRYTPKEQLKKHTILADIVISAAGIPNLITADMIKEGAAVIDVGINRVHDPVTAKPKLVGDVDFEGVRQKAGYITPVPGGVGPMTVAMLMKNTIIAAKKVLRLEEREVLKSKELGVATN

SMILES	IC50 [2] [nM]	IC50 [3] [nM]	MTHFD1/MTHFD2 IC50 ratio [3]	IC50 [1] [nM]
COC[C@H]1CN(c2cc(C)c3c4c(c(=O)oc3c2C)CN(C(=O)c2cc(N(C)C)c(C(=O)NS(=O)(=O)N3C5CCC3COC5)cc2F)CC4)CCN1C [Example 256, N-((3-oxa-8-azabicyclo[3.2.1]octan-8-yl)sulfonyl)-2-(dimethylamino)-5-fluoro-4-(8-((R)-3-(methoxymethyl)-4-methylpiperazin-1-yl)-7,10-dimethyl-5-oxo-1,3,4,5-tetrahydro-2H-chromeno[3,4-c]pyridine-3-carbonyl)benzamide]	1000 to 5000	1 to 10	J (>30)	10 to 30
COC[C@H]1CN(c2cc(Cl)c3c4c(c(=O)oc3c2C)CN(C(=O)c2cc(OC)c(C(=O)NS(=O)(=O)N3CC5CC5C3)cc2F)CC4)CCN1C (stereo partly drawn) [Example 325, N-((3-azabicyclo[3.1.0]hexan-3-yl)sulfonyl)-4-(10-chloro-8-((R)-3-(methoxymethyl)-4-methylpiperazin-1-yl)-7-methyl-5-oxo-1,3,4,5-tetrahydro-2H-chromeno[3,4-c]pyridine-3-carbonyl)-5-fluoro-2-methoxybenzamide]	100 to 1000	1 to 10	J (>30)	100 to 1000
COC[C@H]1CN(c2cc(C)c3c4c(c(=O)oc3c2C)CN(C(=O)c2cc(OC3CCC3)c(C(=O)NS(=O)(=O)C3(C)CC3)c(C(F)(F)F)c2)CC4)CCN1C [Example 130, (R)-2-cyclobutoxy-4-(8-(3-(methoxymethyl)-4-methylpiperazin-1-yl)-7,10-dimethyl-5-oxo-1,3,4,5-tetrahydro-2H-chromeno[3,4-c]pyridine-3-carbonyl)-N-((1-methylcyclopropyl)sulfonyl)-6-(trifluoromethyl)benzamide]	1000 to 5000	10 to 100	J (>30)	1000 to 5000
COC[C@H]1CN(c2cc(C)c3c4c(c(=O)oc3c2C)CN(C(=O)c2ccc(C(=O)NS(=O)(=O)N3CC5CCCCC5C3)cc2)CC4)CCN1C (stereo partly drawn) [Example 211, 4-(8-((R)-3-(methoxymethyl)-4-methylpiperazin-1-yl)-7,10-dimethyl-5-oxo-1,3,4,5-tetrahydro-2H-chromeno[3,4-c]pyridine-3-carbonyl)-N-((octahydro-2H-isoindol-2-yl)sulfonyl)benzamide]	1000 to 5000	10 to 100	H (>9.0 to 30)	1000 to 5000
COC[C@H]1CN(c2cc(Cl)c3c4c(c(=O)oc3c2C)CN(C(=O)c2cc(OC)c(C(=O)NS(=O)(=O)N3C5CCC3CC5)cc2F)CC4)CCN1C [Example 324, (R)-N-((7-azabicyclo[2.2.1]heptan-7-yl)sulfonyl)-4-(10-chloro-8-(3-(methoxymethyl)-4-methylpiperazin-1-yl)-7-methyl-5-oxo-1,3,4,5-tetrahydro-2H-chromeno[3,4-c]pyridine-3-carbonyl)-5-fluoro-2-methoxybenzamide]	100 to 1000	10 to 100	J (>30)	100 to 1000
[2H]C([2H])([2H])Oc1cc(C(=O)N2CCc3c(c(=O)oc4c(C)c(N5CCN(C)[C@@H](COC)C5)cc(Cl)c34)C2)c(F)cc1C(=O)NS(=O)(=O)N1C2CCC1CC2 [Example 326, (R)-N-((7-azabicyclo[2.2.1]heptan-7-yl)sulfonyl)-4-(10-chloro-8-(3-(methoxymethyl)-4-methylpiperazin-1-yl)-7-methyl-5-oxo-1,3,4,5-tetrahydro-2H-chromeno[3,4-c]pyridine-3-carbonyl)-5-fluoro-2-(methoxy-d3)benzamide]	1000 to 5000	1 to 10	J (>30)	100 to 1000
CCOc1cc(C(=O)N2CCc3c(c(=O)oc4c(C)c(N5CCN(C)[C@@H](COC)C5)cc(C)c34)C2)c(F)cc1C(=O)NS(=O)(=O)N1C[C@@H]2C[C@H]1CO2 [Example 267, N-(((1S,4S)-2-oxa-5-azabicyclo[2.2.1]heptan-5-yl)sulfonyl)-2-ethoxy-5-fluoro-4-(8-((R)-3-(methoxymethyl)-4-methylpiperazin-1-yl)-7,10-dimethyl-5-oxo-1,3,4,5-tetrahydro-2H-chromeno[3,4-c]pyridine-3-carbonyl)benzamide]	100 to 1000	1 to 10	J (>30)	100 to 1000
[2H]C([2H])([2H])Oc1cc(C(=O)N2CCc3c(c(=O)oc4c(C)c(N5CCN(C)[C@@H](COC)C5)cc(C)c34)C2)c(Cl)cc1C(=O)NS(=O)(=O)N1CCCC1 [Example 328, (R)-5-chloro-2-(methoxy-d3)-4-(8-(3-(methoxymethyl)-4-methylpiperazin-1-yl)-7,10-dimethyl-5-oxo-1,3,4,5-tetrahydro-2H-chromeno[3,4-c]pyridine-3-carbonyl)-N-(pyrrolidin-1-ylsulfonyl)benzamide]	1000 to 5000	10 to 100	J (>30)	100 to 1000
COC[C@H]1CN(c2cc(Cl)c3c4c(c(=O)oc3c2C)CN(C(=O)c2cc(OC)c(C(=O)NS(=O)(=O)N3CCCC3)cc2F)CC4)CCN1C [Example 262, (R)-4-(10-chloro-8-(3-(methoxymethyl)-4-methylpiperazin-1-yl)-7-methyl-5-oxo-1,3,4,5-tetrahydro-2H-chromeno[3,4-c]pyridine-3-carbonyl)-5-fluoro-2-methoxy-N-(pyrrolidin-1-ylsulfonyl)benzamide]	1000 to 5000	1 to 10	J (>30)	30 to 100

Continued, in another order:

IC50 [2] [nM]	IC50 [3] [nM]	MTHFD1/MTHFD2 IC50 ratio [3]	SMILES	IC50 [1] [nM]
100 to 1000	1 to 10	J (>30)	COC[C@H]1CN(c2cc(F)c3c4c(c(=O)oc3c2C)CN(C(=O)c2cc(N(C)C)c(C(=O)NS(=O)(=O)N3CCCC3)cc2F)CC4)CCN1C [Example 308, (R)-2-(dimethylamino)-5-fluoro-4-(10-fluoro-8-(3-(methoxymethyl)-4-methylpiperazin-1-yl)-7-methyl-5-oxo-1,3,4,5-tetrahydro-2H-chromeno[3,4-c]pyridine-3-carbonyl)-N-(pyrrolidin-1-ylsulfonyl)benzamide]	1 to 10
100 to 1000	1 to 10		COC[C@H]1CN(c2cc(Cl)c3c4c(c(=O)oc3c2C)CN(C(=O)c2cc(N(C)C)c(C(=O)NS(=O)(=O)N3CCCC3)cc2F)CC4)CCN1C [Example 247, (R)-4-(10-chloro-8-(3-(methoxymethyl)-4-methylpiperazin-1-yl)-7-methyl-5-oxo-1,3,4,5-tetrahydro-2H-chromeno[3,4-c]pyridine-3-carbonyl)-2-(dimethylamino)-5-fluoro-N-(pyrrolidin-1-ylsulfonyl)benzamide]	10 to 30
100 to 1000	10 to 100	H (>9.0 to 30)	COC[C@H]1CN(c2cc(C)c3c4c(c(=O)oc3c2C)CN(C(=O)c2cc(N(C)C)c(C(=O)NS(=O)(=O)N(C3CC3)C3CC3)cc2F)CC4)CCN1C [Example 276, (R)-N-(N,N-dicyclopropylsulfamoyl)-2-(dimethylamino)-5-fluoro-4-(8-(3-(methoxymethyl)-4-methylpiperazin-1-yl)-7,10-dimethyl-5-oxo-1,3,4,5-tetrahydro-2H-chromeno[3,4-c]pyridine-3-carbonyl)benzamide]	1 to 10
100 to 1000	1 to 10	J (>30)	COC[C@H]1CN(c2cc(Cl)c3c4c(c(=O)oc3c2C)CN(C(=O)c2cc(N(C)C)c(C(=O)NS(=O)(=O)N3CC5(CCC5)C3)cc2F)CC4)CCN1C [Example 318, (R)-N-((2-azaspiro[3.3]heptan-2-yl)sulfonyl)-4-(10-chloro-8-(3-(methoxymethyl)-4-methylpiperazin-1-yl)-7-methyl-5-oxo-1,3,4,5-tetrahydro-2H-chromeno[3,4-c]pyridine-3-carbonyl)-2-(dimethylamino)-5-fluorobenzamide]	10 to 30
100 to 1000	1 to 10	J (>30)	COC[C@H]1CN(c2cc(C)c3c4c(c(=O)oc3c2C)CN(C(=O)c2cc(N(C)C)c(C(=O)NS(=O)(=O)N(C)C3CC3)cc2F)CC4)CCN1C [Example 257, (R)-N-(N-cyclopropyl-N-methylsulfamoyl)-2-(dimethylamino)-5-fluoro-4-(8-(3-(methoxymethyl)-4-methylpiperazin-1-yl)-7,10-dimethyl-5-oxo-1,3,4,5-tetrahydro-2H-chromeno[3,4-c]pyridine-3-carbonyl)benzamide]	1 to 10
100 to 1000	1 to 10	J (>30)	COC[C@H]1CN(c2cc(C)c3c4c(c(=O)oc3c2C)CN(C(=O)c2cc(N(C)C)c(C(=O)NS(=O)(=O)N3CCC[C@H]3COC)cc2F)CC4)CCN1C [Example 312, 2-(dimethylamino)-5-fluoro-4-(8-((R)-3-(methoxymethyl)-4-methylpiperazin-1-yl)-7,10-dimethyl-5-oxo-1,3,4,5-tetrahydro-2H-chromeno[3,4-c]pyridine-3-carbonyl)-N-(((S)-2-(methoxymethyl)pyrrolidin-1-yl)sulfonyl)benzamide]	10 to 30
